Measurements published in US9126999B2, “Tetrahydropyrazolopyrimidine compounds” (EISAI R&D MANAGEMENT CO., LTD., priority 2012, dated 2015).
Where “and” joins values, the source holds several entries; their conditions need not be identical. Equal entries are not always repeated. Where two headings read alike, the source gives them in different places.

Experiments:
Human TLR7/8 = test system: T1, Human TLR7/8; experiment: Human PBMC cell-based assay, RNA-Ig (SL4-Ig) stimulus, cytokine ELISA
T1 construct: IC50; other: Hu PBMC; ligand RNA-Ig; analyte IL-6; analyte TNFα; ligand R848; IC50 against the RNA-Ig TLR7/8 stimulus; cytokine responses to RNA-Ig complexes in vitro; potency against the RNA-Ig TLR7/8 stimulus versus HCQ
Procedure: Briefly, 25 ml blood was diluted with 15 ml PBS (without Ca^2+, Mg^2+) in a 50 ml conical tube, and 12 ml Histopaque was underlaid using a spinal needle. Tubes were centrifuged for 45 minutes at 1200 rpm (350×g), and PBMC were collected from the buffy coat. Cells were then washed twice in PBS, and red blood cells were lysed by suspension in 5 ml ammonium chloride solution (1× Red Blood Cell Lysis Buffer, eBioscience) for 5 minutes at room temperature.
Antagonist compounds solubilized and serial diluted in 100% DMSO were added in triplicate to cells to yield a final concentration of 0.1% DMSO (v/v). Hydroxychloroquine (Acros Organics) solubilized and serial diluted in PBS was added in triplicate to cells. […] The resulting “RNA-Ig” stimulus was incubated at room temperature for 15-30 minutes before adding to cells. PBMC were incubated with the various TLR agonists for 20 hours at 37° C., 5% CO2. Cell culture supernatants were collected, and levels of various human cytokines were assessed as indicated by standard ELISA procedure according to the manufacturer's recommended protocol (BD Biosciences, Inc., San Diego, Calif.).

Human TLR8 = molecular target: T2, Human TLR8 (Homo sapiens, UniProt Q9NR97); experiment: HEK-293 NF-kappaB luciferase reporter assay, CL097 stimulus; format: cell-based
T2 construct: host or cells: HEK-293 stably expressing human TLR8, then transfected with pNiFty2(NF-kappaB)-luciferase
T2 sequence (Q9NR97 27-1041): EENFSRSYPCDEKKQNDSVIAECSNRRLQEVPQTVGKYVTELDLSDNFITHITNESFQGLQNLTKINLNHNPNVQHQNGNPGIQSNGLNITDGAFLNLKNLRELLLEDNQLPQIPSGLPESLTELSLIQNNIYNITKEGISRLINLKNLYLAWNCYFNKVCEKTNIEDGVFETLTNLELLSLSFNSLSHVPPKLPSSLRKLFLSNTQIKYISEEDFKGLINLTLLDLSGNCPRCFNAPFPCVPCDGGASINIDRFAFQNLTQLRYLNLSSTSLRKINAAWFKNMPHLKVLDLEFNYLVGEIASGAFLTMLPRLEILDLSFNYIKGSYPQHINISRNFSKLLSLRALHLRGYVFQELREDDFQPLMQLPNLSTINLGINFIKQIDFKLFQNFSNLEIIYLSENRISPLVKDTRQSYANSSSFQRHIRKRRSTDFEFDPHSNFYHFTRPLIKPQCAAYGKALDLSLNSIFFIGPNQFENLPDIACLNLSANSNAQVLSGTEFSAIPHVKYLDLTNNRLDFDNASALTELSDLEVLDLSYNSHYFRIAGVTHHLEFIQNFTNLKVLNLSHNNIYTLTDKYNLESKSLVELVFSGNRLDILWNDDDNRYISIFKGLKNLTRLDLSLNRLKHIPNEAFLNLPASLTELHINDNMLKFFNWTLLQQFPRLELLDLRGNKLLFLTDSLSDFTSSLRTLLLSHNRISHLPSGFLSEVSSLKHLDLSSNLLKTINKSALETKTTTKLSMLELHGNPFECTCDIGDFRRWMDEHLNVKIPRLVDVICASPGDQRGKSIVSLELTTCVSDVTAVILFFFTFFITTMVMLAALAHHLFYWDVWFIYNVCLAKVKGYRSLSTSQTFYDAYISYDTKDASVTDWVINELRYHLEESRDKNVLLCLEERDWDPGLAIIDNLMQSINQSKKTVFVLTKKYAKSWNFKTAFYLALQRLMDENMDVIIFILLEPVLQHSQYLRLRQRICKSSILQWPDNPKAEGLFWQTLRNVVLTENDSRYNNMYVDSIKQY
Source text: In vitro pharmacology: HEK-293 cells (ATCC) were engineered to stably express a NF-kappaB transcription factor inducible E-selectin (ELAM-1) luciferase reporter derived from the plasmid pGL3 (Promega) containing base pairs −2241 bp to −254 bp from the promoter of the human E-selectin gene (Accession No. NM_000450). These cells were then subsequently engineered to stably and individually express human TLR4, TLR7 or TLR9 full-length ORF cDNAs. Human TLR4 cDNA (Accession No. NM_138554) was cloned into pcDNA 3.0 expression vector (Invitrogen). TLR4 transfected cells were also engineered to express human MD-2 co-receptor [MD-2 cDNA (Accession No. NM_015364) was cloned into the pEF-BOS vector] and were supplemented with 10 nM soluble CD14 (R&D Systems) in the media to optimize LPS responsiveness. Human TLR9 cDNA (Accession No. NM_017442) was cloned into the pBluescript II KS vector (Agilent). Human TLR7 cDNA (Accession No. NM_016562) was obtained from OriGene. HEK-293 cells stably expressing human TLR8 (Accession No. NM_138636) or mouse TLR7 (Accession No. NM_133211) were purchased from InvivoGen and were then stably transfected with pNiFty2(NF-kappaB)-luciferase reporter plasmid (InvivoGen). Each cell type was plated in Dulbecco's modified Eagle's medium (DMEM) containing 10% fetal bovine serum (FBS) at a density of 2.22×10^5 cells/ml into a 384-well plate and incubated for 2 days at 37° C., 5% CO2. Varying concentrations of antagonist compounds were then added. Cells were then incubated for another 30 minutes before adding the appropriate TLR agonist as follows (final concentrations indicated): lipopolysaccharide (LPS; Sigma) at 10 ng/ml for TLR4, CL097 (InvivoGen) at 3 ug/ml for human TLR7 and TLR8 and mouse TLR7, and CpG-2006-2A [sequence: […] (SEQ ID NO: 1) with phosphorothioate backbone, synthesized by Sigma-Aldrich] at 0.6 uM for TLR9.

[1] = Human PBMC IL-6 Inhibition (SL4-Ig Ligand), read-out: Human PBMC IC50
[2] = human TLR8 in the HEK-293 assay format, read-out: HEK/TLR8 IC50

IC50 (Human TLR7/8; [1]) | IC50 (Human TLR8; [2]) | SMILES | cytokine responses to RNA-Ig complexes in vitro (Human TLR7/8) | IC50 (Human TLR7/8; Hu PBMC, ligand RNA-Ig, analyte TNFα, read-out: IC50) | potency against the RNA-Ig TLR7/8 stimulus versus HCQ (Human TLR7/8; ratio of IC50 values, more potent than HCQ) | IC50 (Human TLR7/8; read-out: IC50 against the RNA-Ig TLR7/8 stimulus) | IC50 (Human TLR8; HEK-293, ligand CL097, analyte NFkB-luciferase, read-out: IC50)
2160 nM | 320 nM | Cc1nn(C)cc1[C@@H]1C[C@H](C(F)(F)F)n2nc(-c3ccc(NC(N)=O)cc3)cc2N1 [ER-894595] |  |  |  |  | 
1750 nM | 540 nM | Cc1nn(C)cc1[C@H]1C[C@@H](C(F)(F)F)n2nc(-c3ccc(NC(N)=O)cc3)cc2N1 [ER-894596] |  |  |  |  | 
676 nM | 280 nM | COc1ccc([C@@H]2C[C@H](C(F)(F)F)n3nc(-c4ccncc4)cc3N2)cc1OC [ER-885454] |  |  |  |  | 

SMILES | IC50 (Human TLR7/8; [1]) | IC50 (Human TLR8; [2]) | cytokine responses to RNA-Ig complexes in vitro (Human TLR7/8) | IC50 (Human TLR7/8; Hu PBMC, ligand RNA-Ig, analyte TNFα, read-out: IC50) | potency against the RNA-Ig TLR7/8 stimulus versus HCQ (Human TLR7/8; ratio of IC50 values, more potent than HCQ) | IC50 (Human TLR7/8; read-out: IC50 against the RNA-Ig TLR7/8 stimulus) | IC50 (Human TLR8; HEK-293, ligand CL097, analyte NFkB-luciferase, read-out: IC50)
COc1ccc([C@@H]2C[C@H](C(F)(F)F)n3nc(-c4ccc(C(=O)N5CCNCC5)cc4)cc3N2)cc1OC [ER-892887, (4-((5S,7R)-5-(3,4-dimethoxyphenyl)-7-(trifluoromethyl)-4,5,6,7-tetrahydropyrazolo[1,5-a]pyrimidin-2-yl)phenyl)(piperazin-1-yl)methanone] | 40 nM and 51 nM |  | blocks | 13 nM | approximately 100 fold | 15 nM | 80 nM
